In ChEMBL document CHEMBL4507275, “Data for DCP probe BI-2545” (2021):

Tests used:
[1] = system: Tyrosine-protein kinase ABL1 (Homo sapiens), P00519 [E255K]; conditions: Compound concentration 1000.0 nM
[2] = system: Tyrosine-protein kinase ABL1 (Homo sapiens), P00519 [F317L]; conditions: Compound concentration 1000.0 nM
[3] = system: Tyrosine-protein kinase ABL1 (Homo sapiens), P00519 [Q252H]; conditions: Compound concentration 1000.0 nM
[4] = molecular target: Tyrosine-protein kinase ABL2 (Homo sapiens) (UniProt P42684); conditions: Compound concentration 1000.0 nM
[5] = molecular target: Activin receptor type-1 (Homo sapiens) (UniProt Q04771); conditions: Compound concentration 1000.0 nM
Sequence of Activin receptor type-1 (Homo sapiens) (Q04771 whole entry): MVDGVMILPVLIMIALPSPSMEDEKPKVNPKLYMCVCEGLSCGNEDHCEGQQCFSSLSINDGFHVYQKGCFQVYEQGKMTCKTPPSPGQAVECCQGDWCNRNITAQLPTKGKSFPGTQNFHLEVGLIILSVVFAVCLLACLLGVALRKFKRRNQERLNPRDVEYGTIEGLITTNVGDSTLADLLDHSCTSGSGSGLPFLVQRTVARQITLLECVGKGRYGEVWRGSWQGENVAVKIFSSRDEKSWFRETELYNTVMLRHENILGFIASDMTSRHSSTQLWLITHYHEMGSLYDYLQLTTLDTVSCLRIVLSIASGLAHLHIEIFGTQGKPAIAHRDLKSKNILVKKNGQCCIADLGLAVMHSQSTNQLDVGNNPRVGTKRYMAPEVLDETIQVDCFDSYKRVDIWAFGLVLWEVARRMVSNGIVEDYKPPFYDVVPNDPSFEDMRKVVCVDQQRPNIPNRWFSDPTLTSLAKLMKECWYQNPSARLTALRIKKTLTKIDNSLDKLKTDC

[6] = system: ALK tyrosine kinase receptor (Homo sapiens), Q9UM73 [L1196M]; conditions: Compound concentration 1000.0 nM
[7] = molecular target: Tyrosine-protein kinase receptor UFO (Homo sapiens) (UniProt P30530); conditions: Compound concentration 1000.0 nM
[8] = molecular target: Calcium/calmodulin-dependent protein kinase type 1 (Homo sapiens) (UniProt Q14012); conditions: Compound concentration 1000.0 nM
[9] = molecular target: Calcium/calmodulin-dependent protein kinase type IV (Homo sapiens) (UniProt Q16566); conditions: Compound concentration 1000.0 nM
[10] = molecular target: Cyclin-dependent kinase 3 (Homo sapiens) (UniProt Q00526); conditions: Compound concentration 1000.0 nM
[11] = molecular target: Casein kinase I isoform epsilon (Homo sapiens) (UniProt P49674); conditions: Compound concentration 1000.0 nM
Sequence of Casein kinase I isoform epsilon (Homo sapiens) (P49674 whole entry, looked up, canonical isoform): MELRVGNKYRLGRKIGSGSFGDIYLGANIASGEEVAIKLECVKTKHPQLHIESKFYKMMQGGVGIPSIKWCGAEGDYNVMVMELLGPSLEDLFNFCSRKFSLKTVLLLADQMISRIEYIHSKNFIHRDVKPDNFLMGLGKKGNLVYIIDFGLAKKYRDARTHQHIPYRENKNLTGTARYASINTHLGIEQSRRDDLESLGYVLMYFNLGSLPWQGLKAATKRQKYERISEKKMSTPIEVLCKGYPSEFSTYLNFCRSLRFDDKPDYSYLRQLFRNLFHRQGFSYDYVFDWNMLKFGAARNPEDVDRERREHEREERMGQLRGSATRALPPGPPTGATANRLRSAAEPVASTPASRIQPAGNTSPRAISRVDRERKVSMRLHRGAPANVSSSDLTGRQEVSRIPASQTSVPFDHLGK

[12] = molecular target: Casein kinase II subunit alpha' (Homo sapiens) (UniProt P19784); conditions: Compound concentration 1000.0 nM
[13] = system: Epidermal growth factor receptor (Homo sapiens), P00533 [UNDEFINED MUTATION]; conditions: Compound concentration 1000.0 nM
[14] = molecular target: Ephrin type-A receptor 5 (Homo sapiens) (UniProt P54756); conditions: Compound concentration 1000.0 nM
Sequence of Ephrin type-A receptor 5 (Homo sapiens) (P54756 whole entry): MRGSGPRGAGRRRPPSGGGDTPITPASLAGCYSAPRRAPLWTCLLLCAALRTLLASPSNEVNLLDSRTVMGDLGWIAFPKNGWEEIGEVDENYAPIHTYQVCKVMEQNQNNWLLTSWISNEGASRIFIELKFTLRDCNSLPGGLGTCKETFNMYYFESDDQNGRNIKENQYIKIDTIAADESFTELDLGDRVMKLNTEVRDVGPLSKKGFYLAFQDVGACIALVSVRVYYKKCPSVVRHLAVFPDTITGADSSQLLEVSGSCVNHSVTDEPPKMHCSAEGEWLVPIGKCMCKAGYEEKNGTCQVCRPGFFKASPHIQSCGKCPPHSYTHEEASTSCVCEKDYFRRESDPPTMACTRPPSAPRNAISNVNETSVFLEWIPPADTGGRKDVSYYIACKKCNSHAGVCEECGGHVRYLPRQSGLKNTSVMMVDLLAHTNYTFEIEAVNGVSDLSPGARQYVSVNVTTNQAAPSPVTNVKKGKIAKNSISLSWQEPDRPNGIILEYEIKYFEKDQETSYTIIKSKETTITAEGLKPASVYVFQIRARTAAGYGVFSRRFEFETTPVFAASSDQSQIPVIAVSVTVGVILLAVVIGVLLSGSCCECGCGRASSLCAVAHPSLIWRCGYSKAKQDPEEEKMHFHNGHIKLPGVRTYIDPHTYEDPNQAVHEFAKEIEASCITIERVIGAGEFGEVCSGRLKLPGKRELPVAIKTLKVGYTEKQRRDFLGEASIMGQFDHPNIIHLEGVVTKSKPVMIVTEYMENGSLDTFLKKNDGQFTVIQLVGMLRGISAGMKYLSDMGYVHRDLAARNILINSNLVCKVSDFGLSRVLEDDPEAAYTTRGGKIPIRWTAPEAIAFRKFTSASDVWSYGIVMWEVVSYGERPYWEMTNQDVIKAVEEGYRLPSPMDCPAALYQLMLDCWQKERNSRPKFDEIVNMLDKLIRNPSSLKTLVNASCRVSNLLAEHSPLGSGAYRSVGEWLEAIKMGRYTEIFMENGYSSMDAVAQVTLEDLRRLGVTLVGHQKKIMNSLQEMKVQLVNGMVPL

[15] = molecular target: Ephrin type-A receptor 6 (Homo sapiens) (UniProt Q9UF33); conditions: Compound concentration 1000.0 nM
[16] = molecular target: Rhodopsin kinase GRK1 (Homo sapiens) (UniProt Q15835); conditions: Compound concentration 1000.0 nM
[17] = molecular target: Glycogen synthase kinase-3 alpha (Homo sapiens) (UniProt P49840); conditions: Compound concentration 1000.0 nM
[18] = molecular target: Tyrosine-protein kinase JAK1 (Homo sapiens) (UniProt P23458); conditions: Compound concentration 1000.0 nM
[19] = molecular target: Tyrosine-protein kinase Lck (Homo sapiens) (UniProt P06239); conditions: Compound concentration 1000.0 nM
[20] = molecular target: Mitogen-activated protein kinase kinase kinase 1 (Homo sapiens) (UniProt Q13233); conditions: Compound concentration 1000.0 nM
[21] = molecular target: Mitogen-activated protein kinase kinase kinase 2 (Homo sapiens) (UniProt Q9Y2U5); conditions: Compound concentration 1000.0 nM
[22] = molecular target: MAP kinase-activated protein kinase 5 (Homo sapiens) (UniProt Q8IW41); conditions: Compound concentration 1000.0 nM
Sequence of MAP kinase-activated protein kinase 5 (Homo sapiens) (Q8IW41 whole entry): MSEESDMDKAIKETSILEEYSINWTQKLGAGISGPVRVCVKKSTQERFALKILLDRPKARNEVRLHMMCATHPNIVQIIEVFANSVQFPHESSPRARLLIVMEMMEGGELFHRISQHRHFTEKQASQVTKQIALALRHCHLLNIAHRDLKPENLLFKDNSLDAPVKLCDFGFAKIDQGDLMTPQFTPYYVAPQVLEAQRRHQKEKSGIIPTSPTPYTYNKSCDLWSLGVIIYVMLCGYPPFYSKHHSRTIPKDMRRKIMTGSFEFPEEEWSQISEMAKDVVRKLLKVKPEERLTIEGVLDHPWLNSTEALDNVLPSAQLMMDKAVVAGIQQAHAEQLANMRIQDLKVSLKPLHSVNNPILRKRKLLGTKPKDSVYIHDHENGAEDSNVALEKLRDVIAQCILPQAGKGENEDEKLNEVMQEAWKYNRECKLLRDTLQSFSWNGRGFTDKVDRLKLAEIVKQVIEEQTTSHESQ

[23] = molecular target: MAP/microtubule affinity-regulating kinase 3 (Homo sapiens) (UniProt P27448); conditions: Compound concentration 1000.0 nM
[24] = molecular target: Serine/threonine-protein kinase 3 (Homo sapiens) (UniProt Q13188); conditions: Compound concentration 1000.0 nM
[25] = molecular target: Serine/threonine-protein kinase Nek7 (Homo sapiens) (UniProt Q8TDX7); conditions: Compound concentration 1000.0 nM
[26] = molecular target: Cyclin-dependent kinase 16 (Homo sapiens) (UniProt Q00536); conditions: Compound concentration 1000.0 nM
[27] = molecular target: Cyclin-dependent kinase 18 (Homo sapiens) (UniProt Q07002); conditions: Compound concentration 1000.0 nM
[28] = system: Phosphatidylinositol 4,5-bisphosphate 3-kinase catalytic subunit alpha isoform (Homo sapiens), P42336 [H1047Y]; conditions: Compound concentration 1000.0 nM
Sequence of Phosphatidylinositol 4,5-bisphosphate 3-kinase catalytic subunit alpha isoform (Homo sapiens), P42336 [H1047Y] (P42336 whole entry H1047Y, canonical isoform): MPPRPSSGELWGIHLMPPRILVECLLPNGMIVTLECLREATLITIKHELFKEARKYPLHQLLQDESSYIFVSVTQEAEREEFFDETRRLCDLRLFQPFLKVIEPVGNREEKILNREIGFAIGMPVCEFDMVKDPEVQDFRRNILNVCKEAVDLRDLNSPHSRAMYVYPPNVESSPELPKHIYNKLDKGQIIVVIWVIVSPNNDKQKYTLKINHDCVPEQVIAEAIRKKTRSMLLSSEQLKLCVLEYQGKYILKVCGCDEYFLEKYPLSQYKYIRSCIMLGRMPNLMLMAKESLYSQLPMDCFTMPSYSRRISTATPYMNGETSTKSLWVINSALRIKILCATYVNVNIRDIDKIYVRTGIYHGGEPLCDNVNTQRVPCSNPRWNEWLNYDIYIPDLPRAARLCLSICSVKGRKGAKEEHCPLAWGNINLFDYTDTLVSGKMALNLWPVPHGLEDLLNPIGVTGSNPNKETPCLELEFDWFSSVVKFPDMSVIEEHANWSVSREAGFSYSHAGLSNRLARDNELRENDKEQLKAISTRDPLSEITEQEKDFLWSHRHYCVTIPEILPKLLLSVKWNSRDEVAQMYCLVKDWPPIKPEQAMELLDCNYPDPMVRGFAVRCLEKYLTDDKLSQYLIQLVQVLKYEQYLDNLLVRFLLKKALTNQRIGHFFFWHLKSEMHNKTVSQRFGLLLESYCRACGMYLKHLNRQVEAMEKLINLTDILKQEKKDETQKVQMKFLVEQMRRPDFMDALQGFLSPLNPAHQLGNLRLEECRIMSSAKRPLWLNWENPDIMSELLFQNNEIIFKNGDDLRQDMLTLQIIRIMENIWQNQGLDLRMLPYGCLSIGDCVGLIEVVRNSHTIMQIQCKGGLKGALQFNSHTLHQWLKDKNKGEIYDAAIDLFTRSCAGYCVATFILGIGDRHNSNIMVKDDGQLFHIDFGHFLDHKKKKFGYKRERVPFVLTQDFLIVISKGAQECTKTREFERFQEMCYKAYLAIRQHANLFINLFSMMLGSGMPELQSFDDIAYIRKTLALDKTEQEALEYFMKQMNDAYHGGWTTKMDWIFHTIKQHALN

[29] = system: Phosphatidylinositol 4,5-bisphosphate 3-kinase catalytic subunit alpha isoform (Homo sapiens), P42336 [Q546K]; conditions: Compound concentration 1000.0 nM
[30] = molecular target: cAMP-dependent protein kinase catalytic subunit beta (Homo sapiens) (UniProt P22694); conditions: Compound concentration 1000.0 nM
[31] = molecular target: NUAK family SNF1-like kinase 2 (Homo sapiens) (UniProt Q9H093); conditions: Compound concentration 1000.0 nM
[32] = molecular target: SRSF protein kinase 2 (Homo sapiens) (UniProt P78362); conditions: Compound concentration 1000.0 nM
[33] = molecular target: Mitogen-activated protein kinase kinase kinase 7 (Homo sapiens) (UniProt O43318); conditions: Compound concentration 1000.0 nM
[34] = molecular target: Tyrosine-protein kinase Tec (Homo sapiens) (UniProt P42680); conditions: Compound concentration 1000.0 nM
[35] = molecular target: Tyrosine-protein kinase receptor Tie-1 (Homo sapiens) (UniProt P35590); conditions: Compound concentration 1000.0 nM
[36] = molecular target: Angiopoietin-1 receptor (Homo sapiens) (UniProt Q02763); conditions: Compound concentration 1000.0 nM
[37] = molecular target: Testis-specific serine/threonine-protein kinase 1 (Homo sapiens) (UniProt Q9BXA7); conditions: Compound concentration 1000.0 nM
[38] = molecular target: Tyrosine-protein kinase receptor TYRO3 (Homo sapiens) (UniProt Q06418); conditions: Compound concentration 1000.0 nM
[39] = molecular target: Serine/threonine-protein kinase ULK2 (Homo sapiens) (UniProt Q8IYT8); conditions: Compound concentration 1000.0 nM
Sequence of Serine/threonine-protein kinase ULK2 (Homo sapiens) (Q8IYT8 whole entry): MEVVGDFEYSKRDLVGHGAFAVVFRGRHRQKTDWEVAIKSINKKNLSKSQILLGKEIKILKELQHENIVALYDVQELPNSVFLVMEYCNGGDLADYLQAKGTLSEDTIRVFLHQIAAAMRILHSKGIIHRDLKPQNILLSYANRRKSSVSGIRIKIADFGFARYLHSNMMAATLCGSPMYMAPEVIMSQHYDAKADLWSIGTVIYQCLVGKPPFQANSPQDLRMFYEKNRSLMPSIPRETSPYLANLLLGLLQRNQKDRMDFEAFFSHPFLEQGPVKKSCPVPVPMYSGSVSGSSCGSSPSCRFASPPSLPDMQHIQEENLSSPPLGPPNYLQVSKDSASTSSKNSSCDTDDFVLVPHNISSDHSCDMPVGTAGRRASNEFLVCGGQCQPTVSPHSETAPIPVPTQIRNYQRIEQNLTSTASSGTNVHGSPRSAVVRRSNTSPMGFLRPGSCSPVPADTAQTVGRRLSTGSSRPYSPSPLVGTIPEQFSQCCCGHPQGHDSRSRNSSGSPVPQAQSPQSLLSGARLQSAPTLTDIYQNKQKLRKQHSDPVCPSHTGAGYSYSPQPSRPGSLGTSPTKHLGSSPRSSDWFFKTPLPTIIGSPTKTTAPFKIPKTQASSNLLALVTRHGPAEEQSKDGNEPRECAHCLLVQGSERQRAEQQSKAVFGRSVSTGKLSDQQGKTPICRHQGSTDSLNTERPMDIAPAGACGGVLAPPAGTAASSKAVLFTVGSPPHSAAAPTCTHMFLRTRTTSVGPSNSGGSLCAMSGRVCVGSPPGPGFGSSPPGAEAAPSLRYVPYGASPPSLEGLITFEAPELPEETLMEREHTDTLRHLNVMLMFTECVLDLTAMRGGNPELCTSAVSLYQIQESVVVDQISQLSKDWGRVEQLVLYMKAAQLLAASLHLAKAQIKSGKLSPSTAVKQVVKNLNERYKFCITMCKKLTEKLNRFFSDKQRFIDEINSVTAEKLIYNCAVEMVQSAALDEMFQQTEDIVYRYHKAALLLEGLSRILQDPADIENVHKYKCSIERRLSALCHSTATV

[40] = molecular target: Serine/threonine-protein kinase 32A (Homo sapiens) (UniProt Q8WU08); conditions: Compound concentration 1000.0 nM
Sequence of Serine/threonine-protein kinase 32A (Homo sapiens) (Q8WU08 whole entry): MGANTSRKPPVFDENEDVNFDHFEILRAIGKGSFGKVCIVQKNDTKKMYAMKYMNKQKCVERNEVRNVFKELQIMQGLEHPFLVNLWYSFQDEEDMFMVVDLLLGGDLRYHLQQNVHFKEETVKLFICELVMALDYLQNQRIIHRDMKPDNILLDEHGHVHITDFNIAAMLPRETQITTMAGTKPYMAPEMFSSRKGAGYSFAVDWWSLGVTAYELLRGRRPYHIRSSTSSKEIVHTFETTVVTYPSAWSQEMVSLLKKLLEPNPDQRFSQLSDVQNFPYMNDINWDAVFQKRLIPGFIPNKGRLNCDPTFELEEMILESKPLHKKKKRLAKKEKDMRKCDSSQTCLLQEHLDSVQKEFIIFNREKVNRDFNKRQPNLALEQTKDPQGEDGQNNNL

[41] = molecular target: 5-hydroxytryptamine receptor 6 (Homo sapiens) (UniProt P50406); conditions: Compound concentration 10.0 uM
[42] = molecular target: D(4) dopamine receptor (Homo sapiens) (UniProt P21917); conditions: Compound concentration 10.0 uM
[43] = molecular target: D(1B) dopamine receptor (Homo sapiens) (UniProt P21918); conditions: Compound concentration 10.0 uM
[44] = molecular target: GABA-A receptor; anion channel (Rattus norvegicus) (UniProt O09028+P15431+P18506+P18508+P19969+P20236+P23574+P23576+P28471+P28473+P30191+P62813+P63079+P63138+Q91ZM7+Q9ES14); conditions: Compound concentration 10.0 uM

O=C(NC[C@@H]1[C@H]2CN(C(=O)OCc3cc(C(F)(F)F)cc(C(F)(F)F)c3)C[C@@H]12)c1ccc2[nH]nnc2c1 [BI 2545]
inactive: residual activity [1] 92% | residual activity [2] 88% | residual activity [3] 100% | residual activity [4] 98% | residual activity [5] 100% | residual activity [6] 100% | residual activity [7] 87% | residual activity [8] 77% | residual activity [9] 100% | residual activity [10] 94% | residual activity [11] 100% | residual activity [12] 92% | residual activity [13] 100% | residual activity [14] 100% | residual activity [15] 69% | residual activity [16] 90% | residual activity [17] 99% | residual activity [18] 100% | residual activity [19] 100% | residual activity [20] 71% | residual activity [21] 80% | residual activity [22] 86% | residual activity [23] 100% | residual activity [24] 87% | residual activity [25] 83% | residual activity [26] 100% | residual activity [27] 100% | residual activity [28] 62% | residual activity [29] 78% | residual activity [30] 100% | residual activity [31] 88% | residual activity [32] 100% | residual activity [33] 94% | residual activity [34] 100% | residual activity [35] 77% | residual activity [36] 89% | residual activity [37] 100% | residual activity [38] 75% | residual activity [39] 97% | residual activity [40] 72% | inhibition [41] 28.9% | inhibition [42] 6.75% | inhibition [43] 21.6% | inhibition [44] 1.13%

Cc1nccc(COC(=O)N2C[C@@H]3[C@@H](CNC(=O)c4ccc5[nH]nnc5c4)[C@@H]3C2)n1 [BI 3017]
inactive: residual activity [1] 89% | residual activity [2] 90% | residual activity [3] 93% | residual activity [4] 90% | residual activity [5] 95% | residual activity [6] 93% | residual activity [7] 88% | residual activity [8] 93% | residual activity [9] 95% | residual activity [10] 97% | residual activity [11] 100% | residual activity [12] 85% | residual activity [13] 100% | residual activity [14] 93% | residual activity [15] 98% | residual activity [16] 100% | residual activity [17] 82% | residual activity [18] 85% | residual activity [19] 94% | residual activity [20] 85% | residual activity [21] 100% | residual activity [22] 97% | residual activity [23] 95% | residual activity [24] 97% | residual activity [25] 100% | residual activity [26] 78% | residual activity [27] 100% | residual activity [28] 82% | residual activity [29] 85% | residual activity [30] 98% | residual activity [31] 100% | residual activity [32] 77% | residual activity [33] 75% | residual activity [34] 94% | residual activity [35] 100% | residual activity [36] 90% | residual activity [37] 91% | residual activity [38] 100% | residual activity [39] 77% | residual activity [40] 94% | inhibition [41] 26.1% | inhibition [42] -0.15% | inhibition [43] 16.4% | inhibition [44] 9.85%
